Data from patent US20240139205A1, “MODULATORS OF ARALAR FOR TREATING NEUROLOGICAL DISORDERS” (Universite de Lausanne, priority 2020, published 2024).

Assays:
Cyfip^85.1/+ flies = test: competition for food assay (total number of social events) in Cyfip haploinsufficient flies; assay type: in vivo, Drosophila; conditions: Cyfip^85.1/+ flies; Diazepam 50 μM in food, 1 day
Method: (§1) Experiments were performed with socially experienced, 3-7 days-old male flies. Groups of eight males from the same genotype were anesthetized 24 h prior to the assay and placed in vials with food. On the day of the assay, the males were transferred without anesthesia to an empty vial and were deprived of food for 90 minutes, after which they were exposed to a food droplet and given 2 minutes to acclimate to this disturbance. The flies were then observed simultaneously for an additional 2 minutes, and the total number of social events was scored. Monitored social events were i.e. approaches, lunges, tussles, wing threat and the initiation of courtship. Of note, one interaction involving two or more flies was counted as one social event in total (Zwarts (2011), PNAS 108, 17070-17075. The behavioral assays were conducted in a behavioral chamber (25° C., 60-70% humidity) between 8 a.m. and 11 a.m. Statistics were calculated using a one-way fixed effect ANOVA model, and Kruskal Wallis test in combination with Dunn's multiple comparison test.
(§2) Example 8. GABA augmentation fully normalizes the behavioral abnormalities of Cyfip^85.1/+ flies. GABA levels were augmented in Cyfip^85.1/+ flies in three distinct ways: flies were fed either GABA, DL-2,4-diaminobutyric acid (DABA) which is a GABA-transaminase inhibitor and/or a GABA reuptake inhibitor or the anticonvulsant valproic acid (VPA) which induces GABA release (Chateauvieux (2010), Journal of biomedicine & biotechnology 2010; Coghlan (2012), Neurosci Biobehav Rev 36, 2044-2055; Reynolds (2007), Current medicinal chemistry 14, 2799-2812). All compounds were purchased from Sigma-Aldrich and were used as described before (Kanellopoulos (2012), J Neurosci. 32(38):13111-24; Zwarts (2011), PNAS 108, 17070-17075). In brief, the drugs were dissolved as per the manufacturer's instructions and used at the following concentrations: GABA at 50 μM, DABA 100 μM, Valproic acid (VPA) at 1 mM and Diazepam at 50 μM. Compounds in solution were mixed with Formula 4-24® Instant Drosophila Medium (blue food) in water. Approximately 50-60 adult flies were placed in plastic vials containing 500 μl of each solution on top of an agar matrix and allowed to feed ad libitum before behaviour analysis. Vehicle treatment consisted of solvent added to blue food alone.
Example 16. Drug screening to identify compounds that ameliorate social behavior deficits in flies with Cyfip haploinsufficiency. Control (w1118) or CYFIP (Cyfip^85.1/+) flies were treated, i.e. fed, with various compounds from the Prestwick Chemical Library® as described in Examples 8 and 15. All compounds were used at a concentration of 50 μM. The total number of social interactions was analyzed in a competition for food assay at various time-points (1, 2 or 5 days) of treatment with the compound or vehicle controls as described in Example 2.

Cyfip1+/− mice = test: three-chamber test (sociability and social novelty) in Cyfip1+/− mice; assay type: in vivo, mouse; conditions: for social preference deficit (sociability index, stranger 1 vs object): acute diazepam i.p. 0.2 mg/ml at 1% of bodyweight, 30 min prior to test
Method: Sociability and social novelty were evaluated using the three-chamber test previously described (Crawley (2007), Brain Pathology 17(4), 448-459). Briefly, the set-up consisted of a rectangular non-transparent Plexiglas box divided into three compartments, separated by two partitions (each compartment: 30×19×21 cm). These partitions contained a small passage in the middle (8×7 cm; that can be sealed with small guillotine doors), which allowed the mouse to transition between adjacent compartments. During the acclimation phase, mice were allowed to explore the empty central compartment for 5 min. At the start of the test, both sliding doors were closed and each of the outer compartments were equipped with a wired cage (10 cm diameter, 20 cm high), one containing an object (50 ml Falcon Tube or a glue stick) and the other containing a mouse (i.e. stranger 1). Holding cages were used to avoid inter-male fighting but allow visual and olfactory contact between mice. During the sociability phase, the guillotine doors were removed and mice could freely explore the entire set-up for 10 min. It is expected from healthy mice that more interest is shown towards another mouse compared to an object. After 10 min, mice were placed into an empty housing cage, and the holding cage containing the object was replaced by a holding cage containing a novel mouse (i.e. stranger 2). During the next phase (social memory), the stranger 1 mouse has become familiar and it is expected that healthy mice show more interest towards the stranger 2 mouse compared to the stranger 1 mouse. The guillotine doors were removed and mice were allowed to explore the set-up for another 10 min. The location of the stranger 1 and stranger 2 mice was counterbalanced between animals and the box was cleaned with 70% EtOH solution after each animal. All stranger mice used were of the same sex as the tested mouse and had never been in contact with the test mice. Mice were recorded with a camera and were tracked with Ethovision software (Noldus, Wageningen, The Netherlands). Time spent in close proximity (<2 cm) to the holding cages was recorded. Preference index was calculated as: Time stranger 1/(Time stranger 1+Time object) and Timestranger 2/(Timestranger 1+Timestranger 2) for sociability and social memory/social novelty, respectively.
Diazepam, a GABA-A positive modulator, was purchased from Roche (Basel, Switzerland) (diazepam already dissolved in saline at a concentration of 5 mg/ml). Diazepam was further diluted in saline and adjusted to the dose of 0.2 mg/ml. Mice were first tested in the three-chamber test in control conditions. 72 h afterwards, all mice were administered intraperitoneally with diazepam at 1% of bodyweight 30 min prior to re-testing. […]

WT mice = test: three-chamber test (sociability) in WT mice; assay type: in vivo, mouse; conditions: acute diazepam i.p. 0.2 mg/ml at 1% of bodyweight, 30 min prior to test
Method: Sociability and social novelty were evaluated using the three-chamber test previously described (Crawley (2007), Brain Pathology 17(4), 448-459). Briefly, the set-up consisted of a rectangular non-transparent Plexiglas box divided into three compartments, separated by two partitions (each compartment: 30×19×21 cm). These partitions contained a small passage in the middle (8×7 cm; that can be sealed with small guillotine doors), which allowed the mouse to transition between adjacent compartments. During the acclimation phase, mice were allowed to explore the empty central compartment for 5 min. At the start of the test, both sliding doors were closed and each of the outer compartments were equipped with a wired cage (10 cm diameter, 20 cm high), one containing an object (50 ml Falcon Tube or a glue stick) and the other containing a mouse (i.e. stranger 1). Holding cages were used to avoid inter-male fighting but allow visual and olfactory contact between mice. […] Mice were recorded with a camera and were tracked with Ethovision software (Noldus, Wageningen, The Netherlands). Time spent in close proximity (<2 cm) to the holding cages was recorded. Preference index was calculated as: Time stranger 1/(Time stranger 1+Time object) and Timestranger 2/(Timestranger 1+Timestranger 2) for sociability and social memory/social novelty, respectively. […]

wild type flies = test: competition for food assay (total number of social events) in wild type (control) flies; assay type: in vivo, Drosophila; conditions: wild type flies; oligomycin 500 μM in the food, 1 day
Method: as §1, §2

[1] = system: mitochondrial membrane potential; test: mitochondrial membrane potential by TMRE staining of fly brains; assay type: in vivo, Drosophila; conditions: wild type flies; oligomycin 500 μM in the food
Method: Briefly, for the TMRE (Enzo) and Rhodamine 123 (Sigma-Aldrich) stainings, brains were dissected in HL3 solution (mM): 110 NaCl, 5 KCl, 10 NaHCO3, 5 Hepes, 30 sucrose, 5 trehalose, and 10 MgCl2, pH 7.2. Dissected brains were stained with 10 nM TMRE or Rhodamine123 dye for 5 minutes at room temperature. Brains were quickly washed with HL3 solution, mounted on glass slides and imaged immediately with confocal microscope Leica SP8 using the same settings for all the samples.
(§3) Since Aralar needs a proton for import of its substrate (i.e. GABA) into mitochondria, the equilibrium distribution of the transport substrates is set by the pH gradient across the mitochondrial membrane, which in turn is a function of fuel availability, oxidative phosphorylation and activity of the TCA cycle.

GABA = GABA levels by ELISA after fractionation of fly brains; assay type: in vivo, Drosophila; conditions: wild type flies; oligomycin 500 μM in the food
Method: Finally, GABA levels were measured by ELISA (GABA ELISA Enzyme immunoassay (IBL, ID59301) following a fractionation to enrich for mitochondria or synaptic vesicles (Depner (2014), Nat Protoc 9, 2796-2808). In brief, total brain lysates, isolated mitochondria and vesicles were used for GABA derivatization. The samples were incubated with a polyclonal antibody against GABA-derivative, together with assay reagent containing the GABA-derivative (tracer). The concentration of antibody-bound tracer is inverse proportional to the GABA concentration in the sample. Peroxidase conjugate was added detect the tracer and tetramethylbenzidine (TMB) served as a peroxidase substrate. The absorbance was measured in a microplate photometer at 450 nm.
as §3

Question: Which results are given for `CN1C(=O)CN=C(c2ccccc2)c2cc(Cl)ccc21` [diazepam]?
Answer: social deficits (social events) (Cyfip^85.1/+ flies): restored the social deficits; increase in social preference after treatment (within-subject, control vs diazepam-treated) (Cyfip1+/− mice; acute diazepam i.p.): approximately 50%; social preference deficit (sociability index, stranger 1 vs object) (Cyfip1+/− mice): rescued the social preference deficit; social preference deficit (sociability index, stranger 1 vs object) (Cyfip1+/− mice; listed as Diazepam): restores deficits in social behavior; preference for the novel mouse (social novelty index) (Cyfip1+/− mice; acute diazepam i.p., genotype difference not statistically significant): slightly increase; social preference (sociability index) (WT mice): slight decrease in social preference

Question: For `CC[C@H]1/C=C/C=C/C[C@@H](C)[C@H](O)[C@@](C)(O)C(=O)[C@@H](C)[C@H](O)[C@@H](C)C(=O)[C@@H](C)[C@H](O)[C@@H](C)/C=C/C(=O)O[C@@H]2[C@H](C)[C@H](CC1)O[C@]1(CC[C@H](C)[C@H](C[C@@H](C)O)O1)[C@H]2C` [oligomycin], which competition for food (wild type flies) is on record?
Answer: decreased

Question: And the “mitochondrial membrane potential (TMRE staining)” value [1]?
Answer: increasing mitochondrial membrane potential

Question: And the “level of available GABA in the cytosol (ELISA)” value (GABA)?
Answer: decreased
